Source: patent publication US20070270436A1, “NOVEL AMINO- AND IMINO-ALKYLPIPERAZINES” (Recordati Ireland Limited, priority 2006, published 2007)

Legend:
[1] = tested on: urinary bladder; test: Cystometric parameters in conscious rats after oral administration; format: in vivo, rat; conditions: 3 mg/kg p.o., 1-5 h after treatment
Experimental: Male Sprague-Dawley rats [Crl: CD® (SD) IGS BR] of 300-400 g body weight supplied by Charles River Italia were used. The animals were housed with free access to food and water and maintained on a forced 12-hour-light/12-hour-dark cycle at 22-24° C. of temperature, except during the experiment. To quantify urodynamic parameters in conscious rats, cystometrographic studies were performed according to the procedure previously reported (Guarneri et al., Pharmacol. Res. 24: 175, 1991).
Briefly, the rats were anaesthetised by intraperitoneal administration of 3 ml/kg of Equithensin solution (pentobarbital 30 mg/kg and chloral hydrate 125 mg/kg) and placed in a supine position. An approximately 10 mm-long midline incision was made in the shaved and cleaned abdominal wall. The urinary bladder was gently freed from adhering tissues, emptied and then cannulated via an incision in the bladder body, using a polyethylene cannula (0.58-mm internal diameter, 0.96-mm external diameter) which was permanently sutured with silk thread. The cannula was exteriorised through a subcutaneous tunnel in the retroscapular area, where it was connected to a plastic adapter in order to avoid the risk of removal by the animal. For drug testing, the rats were utilised one day after implantation.
On the day of the experiment, the rats were placed in modified Bollman cages, i.e., restraining cages that were large enough to permit the rats to adopt a normal crouched posture, but narrow enough to prevent turning around. After a stabilisation period of about 20 minutes, the free tip of the bladder cannula was connected through a T-shaped tube to a pressure transducer (Statham P23XL) and to a peristaltic pump (Gilson minipuls 2) for continues infusion of a warm (37° C.) saline solution into the urinary bladder, at a constant rate of 0.1 ml/minute. The intraluminal-pressure signal during infusion of saline into the bladder was continuously recorded on a polygraph (Rectigraph-8K San-ei with BM614/2 amplifier from Biomedica Mangoni). The cystometrogram was used to evaluate the urodynamic parameters of bladder volume capacity (BVC) and micturition pressure (MP). BVC (ml) is defined as the volume of saline infused into the bladder necessary to induce detrusor contraction followed by micturition. MP (mmHg) is defined as the maximal intravesical pressure caused by contraction during micturition. Basal BVC and MP values were evaluated as mean of the values observed in the cystometrograms recorded in an initial period of 30-60 minutes. Following determination of basal BVC and MP, the infusion was interrupted and the test compounds were administered orally by a stomach tube. Bladder infusion was resumed and changes in BVC and MP were evaluated from the mean values obtained in the cystometrograms observed during 1, 2, 3, 4 and 5 hours after treatment. Compounds were administered in a volume of 2 ml/kg and groups of control animals received the same amount of vehicle (0.5% methocel in water) orally.
Data were expressed as mean ±standard error. The percent changes of BVC and MP versus the basal values, as well as Δ values (difference in ml or mmHg) of BVC and MP (BVC or MP at time “x” minus basal value), were also evaluated for each rat/time. In the figures, data were reported as % changes versus basal values.
Statistical analysis on BVC and MP values, as well as on Δ values, was performed by S.A.S./STAT software, version 6.12. The observed differences between vehicle (control) and test treatments were evaluated on Δ values of BVC and MP, whereas the differences between the values at different times versus basal values were analyzed on original BVC and MP data.

[2] = tested on: rhythmic bladder-voiding contractions; test: Rhythmic bladder-voiding contractions induced by bladder filling in anaesthetised rats; format: in vivo, rat; conditions: intravenous administration
Experimental: Female Sprague-Dawley rats weighing 225-275 g (Crl: CD® (SD) IGS BR, Charles River Italia) were used. The animals were housed with free access to food and water and maintained on a forced 12-hour alternating light-dark cycle at 22-24° C. for at least one week, except during the experiment. The activity on rhythmic bladder voiding contractions was evaluated according to the method of Dray (Dray J., Pharmacol. Methods, 13:157, 1985), with some modifications as in Guarneri (Guarneri, Pharmacol. Res. 27:173, 1993). Briefly, the rats were anaesthetised by subcutaneous injection of 1.25 g/kg (5 ml/kg) urethane, after which the urinary bladder was catheterised via the urethra using PE 50 polyethylene tubing filled with physiological saline. The catheter was tied in place with a ligature around the external urethral orifice and was connected to conventional pressure transducers (Statham P23 ID/P23 XL). […] The bladder was then filled via the recording catheter by incremental volumes of warm (37° C.) saline until reflex bladder-voiding contractions occurred (usually 0.8-1.5 ml). For intravenous injection of bioactive compounds, PE 50 polyethylene tubing filled with physiological saline was inserted into the jugular vein.
From the cystometrogram, the number of contractions recorded 15 minutes before (basal values) and after treatment, as well as the mean amplitude of these contractions (mean height of the peaks in mmHg), was evaluated.
Since most compounds produced an effect that was relatively rapid in onset and led to a complete cessation of bladder contractions, bioactivity was conveniently estimated by measuring the duration of bladder quiescence (i.e., the time during which no contractions occurred). The number of tested animals showing a reduction in the number of contractions higher than 30% of that observed in the basal period was recorded too.
The extrapolated doses which induced a reduction in the number of contractions greater than 30% in 50% of the treated rats (ED50) were also evaluated by the method of Bliss (Bliss C. I., Quart J. Pharm. Pharmacol. 11, 192-216, 1938).

| Structure (SMILES) | bladder volume capacity (BVC) [1] | micturition pressure (MP) [1] | ED50 (frequency) (extrapolated dose inducing a reduction of the number of contractions >30% in 50% of treated rats) [2] | ED10 min (extrapolated dose inducing 10 minutes of disappearance of the contractions) [2] |
| --- | --- | --- | --- | --- |
| COc1ccccc1N1CCN(CCC(c2ccccc2F)C(C2CCCCC2)N(C)C(C)=O)CC1 (racemic) [Example 16, (RS,SR)- and (RS,RS)-N-{-1-Cyclohexyl-2-(2-fluorophenyl)-4-[4-(2-methoxyphenyl)piperazin-1-yl]butyl}-N-methylacetamide] | effective in increasing | without significant effects | 31 µg/kg | 72 µg/kg |
| COc1ccccc1N1CCN(CC[C@@H](c2ccccc2F)[C@H](NC(=S)N(C)C)C2CCCCC2)CC1 (racemic) [Example 24, 3-{(RS,SR)-1-Cyclohexyl-2-(2-fluorophenyl)-4-[4-(2-methoxyphenyl)-piperazin-1-yl]butyl}-1,1-dimethylthiourea] | significantly increased | slight but significant reduction | – | – |
